Some test systems named below: SK-MEL-28 melanoma; DU-145 prostate; OVCAR-8 ovarian; CCRF-CEM leukemia; NCI/ADR-RES ovarian; HT29 colon; EKVX NSCLC; SF-295 CNS; LOX IMVI melanoma; PC-3 prostate; CAKI-1 renal; M14 melanoma; HS 578T breast.
Common to all, as to test: NCI tumour cell line growth inhibition, 48 h

“And” between values parts separate entries of the source, which are not always exact repeats. Identical values can stand only once.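 Briefly, cells in 96-well plates were exposed to five compound concentrations for 48 h, and endpoints were estimated by linear interpolation. Abbreviation: GI50, concentration required for 50% inhibition of growth. TGI marks complete inhibition of growth.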

For `CC(=O)OCC(=O)O[C@@H]1[C@H]2[C@@H](OC(=O)c3ccccc3)[C@@H](C)C[C@]2(O)[C@H](OC(C)=O)[C@@]2(C)C(OC(C)=O)[C@]1(OC(C)=O)C[C@H]1C(=O)C(C)(C)C[C@@H]12` (some centres not stated), the TGI in the assay on SK-MEL-28 melanoma, with DU-145 prostate, in the assay with OVCAR-8 ovarian, in the assay on CCRF-CEM leukemia, in the assay with NCI/ADR-RES ovarian and in the assay with HT29 colon was more than 50 µM in each case. The TGI with EKVX NSCLC, in the assay with SF-295 CNS, in the assay with LOX IMVI melanoma, in the assay on PC-3 prostate, with CAKI-1 renal and in the assay on M14 melanoma was more than 50 µM each time. Also, the TGI with HS 578T breast was more than 50 µM.
As for `COc1cc2c(c(O)c1OC)C(=O)[C@@H]1CCC(=O)N1C2`, the TGI with SK-MEL-28 melanoma, in the assay with DU-145 prostate, in the assay with OVCAR-8 ovarian, in the assay on CCRF-CEM leukemia, with NCI/ADR-RES ovarian and in the assay on HT29 colon was more than 100 µM each time. Besides, the TGI in the assay with EKVX NSCLC, in the assay on SF-295 CNS, with LOX IMVI melanoma, with PC-3 prostate, in the assay with CAKI-1 renal and in the assay with M14 melanoma was more than 100 µM in each case. The molecule further had a TGI in the assay on HS 578T breast of more than 100 µM.
Take `c1cc2nnc1SCCCSc1ccc(nn1)SCCCS2`: the TGI in the assay with SK-MEL-28 melanoma was more than 100 µM; in the assay with DU-145 prostate, more than 100 µM; in the assay on OVCAR-8 ovarian, more than 100 µM; with CCRF-CEM leukemia, more than 100 µM; in the assay on NCI/ADR-RES ovarian, more than 52.9 µM; with HT29 colon, more than 100 µM. Also, the TGI in the assay on EKVX NSCLC was more than 100 µM; in the assay with SF-295 CNS it was more than 100 µM; in the assay with LOX IMVI melanoma it was more than 48.4 µM; in the assay with PC-3 prostate, more than 100 µM; in the assay on CAKI-1 renal, more than 100 µM; in the assay on M14 melanoma, more than 57.6 µM. Besides, in the assay on HS 578T breast, the TGI is 99.2 µM.
Regarding `CC1(C)CC[C@]2(C)CC[C@]3(C)C(=CC[C@@H]4[C@@]5(C)CCC(=O)C(C)(C)[C@@H]5[C@H](O)C[C@]43C)[C@@H]2C1`, the TGI in the assay on SK-MEL-28 melanoma is 34.8 µM; in the assay with DU-145 prostate it was 34.4 µM; with OVCAR-8 ovarian it was 34.3 µM; in the assay with CCRF-CEM leukemia, more than 100 µM; in the assay with NCI/ADR-RES ovarian it was 38.6 µM; in the assay on HT29 colon, 31.8 µM. For the same molecule, the TGI with EKVX NSCLC was 32.4 µM; in the assay with SF-295 CNS it was 32.3 µM; in the assay with LOX IMVI melanoma it was 32.8 µM; in the assay with PC-3 prostate it was 30.9 µM; with CAKI-1 renal, 33.7 µM; in the assay on M14 melanoma, 40.7 µM. Moreover, the TGI in the assay with HS 578T breast was determined as 36.8 µM.
Take `c1ccc2oc(-c3ccc(-c4nc5ccccc5o4)c4c3CC4)nc2c1`: the TGI in the assay on SK-MEL-28 melanoma, in the assay on DU-145 prostate, in the assay on OVCAR-8 ovarian, with CCRF-CEM leukemia, in the assay with NCI/ADR-RES ovarian and in the assay on HT29 colon was more than 100 µM in each case. The TGI with EKVX NSCLC, with SF-295 CNS, in the assay on LOX IMVI melanoma, with PC-3 prostate, with CAKI-1 renal and in the assay with M14 melanoma was more than 100 µM in each case. This molecule returned a TGI in the assay on HS 578T breast of more than 100 µM.
Consider `CC1(c2nc3ccccc3[nH]2)CCC(C(=O)O)C(C)(C)O1` (configuration not stated), for which the TGI in the assay on SK-MEL-28 melanoma, with DU-145 prostate, in the assay on OVCAR-8 ovarian, with CCRF-CEM leukemia, in the assay on NCI/ADR-RES ovarian and in the assay on HT29 colon was more than 100 µM each time. The TGI in the assay with EKVX NSCLC, in the assay on SF-295 CNS, in the assay with LOX IMVI melanoma, in the assay with PC-3 prostate, in the assay with CAKI-1 renal and in the assay with M14 melanoma was more than 100 µM throughout. Moreover, the TGI in the assay on HS 578T breast is more than 100 µM.
As to `Cc1cn(CCCCC2=NCCCN2)c(=O)[nH]c1=O`, the TGI in the assay on SK-MEL-28 melanoma is more than 32.9 µM; in the assay with DU-145 prostate it was more than 34.4 µM; in the assay with OVCAR-8 ovarian, more than 28.2 µM; in the assay on CCRF-CEM leukemia, more than 23 µM; with NCI/ADR-RES ovarian, more than 67.5 µM; with HT29 colon it was more than 23.1 µM. The TGI in the assay on EKVX NSCLC is more than 42 µM; in the assay with SF-295 CNS, more than 65.5 µM; in the assay with LOX IMVI melanoma, more than 32.6 µM; in the assay with PC-3 prostate, more than 35 µM; with CAKI-1 renal, more than 23.4 µM; in the assay with M14 melanoma, more than 32.4 µM. The molecule further yielded a TGI in the assay on HS 578T breast of more than 60.5 µM.
On to `CCC1OC2C(CC=C(C)C)=C3OC(C)(O)C(C)(CC)C(OC(C)=O)C3=C3OC(=O)C=C1C32` (configuration not stated), for which the TGI was 59.1 µM with SK-MEL-28 melanoma; more than 100 µM with DU-145 prostate; more than 100 µM with OVCAR-8 ovarian; more than 100 µM in the assay with CCRF-CEM leukemia; 83.2 µM in the assay on NCI/ADR-RES ovarian; 53.1 µM with HT29 colon. The TGI with EKVX NSCLC is more than 100 µM; in the assay with SF-295 CNS it was 42.2 µM; in the assay with LOX IMVI melanoma, 48.8 µM; in the assay on PC-3 prostate, more than 100 µM; with CAKI-1 renal, 62.1 µM; in the assay with M14 melanoma, more than 100 µM. This molecule also displayed a TGI with HS 578T breast of more than 100 µM.
Regarding `O=[N+]([O-])c1ccc(OC2CC3C4C=CC3C2C4)c([N+](=O)[O-])c1` (configuration not stated), the GI50 is more than 100 µM in the assay on SK-MEL-28 melanoma; > 100 µM and 24 µM in the assay with CCRF-CEM leukemia; 76.4 µM and > 31.6 µM with NCI/ADR-RES ovarian; > 100 µM and 30 µM in the assay with HT29 colon; 56.5 µM and 22 µM in the assay with EKVX NSCLC; more than 100 µM in the assay with LOX IMVI melanoma. Also, the GI50 in the assay on PC-3 prostate is more than 100 µM. The TGI with SK-MEL-28 melanoma, with DU-145 prostate, in the assay with OVCAR-8 ovarian, with CCRF-CEM leukemia, with NCI/ADR-RES ovarian and in the assay on HT29 colon was more than 100 µM in each case. In addition, the TGI with EKVX NSCLC is more than 100 µM; in the assay on SF-295 CNS, 49.9 µM and > 31.6 µM; with LOX IMVI melanoma, more than 100 µM; with PC-3 prostate, more than 100 µM; in the assay on CAKI-1 renal, more than 100 µM; in the assay with M14 melanoma, more than 100 µM. In addition, the TGI with HS 578T breast was more than 100 µM.
For the molecule `COc1ccc(/C(Br)=C2\OC(=O)c3ccccc32)cc1`, the TGI in the assay with SK-MEL-28 melanoma, with DU-145 prostate, with OVCAR-8 ovarian, in the assay with CCRF-CEM leukemia, in the assay on NCI/ADR-RES ovarian and in the assay on HT29 colon was more than 10 µM in each case. For the same molecule, the TGI with EKVX NSCLC, with SF-295 CNS, in the assay with LOX IMVI melanoma, in the assay with PC-3 prostate, in the assay with CAKI-1 renal and with M14 melanoma was more than 10 µM throughout. Moreover, the TGI in the assay on HS 578T breast is more than 10 µM.

Source of the values: PubChem BioAssay (NCI).
